According to ChEMBL document CHEMBL5360641, “4'-Ethynyl-2'-deoxy-2'-β-fluoro-2-fluoroadenosine: A Highly Potent and Orally Available Clinical Candidate for the Treatment of HIV-1 Infection” (J Med Chem, 2023):

What was measured:
[1] = test system: Human immunodeficiency virus 1; test: Antiviral activity against HIV1 VSV-G pseudotyped virus infected in human HEK293T cells assessed as inhibition of viral growth preincubated for 3 hrs followed by washout and further incubated with compound for 72 hrs by luciferase assay; assay type: functional, organism-based; conditions: Human immunodeficiency virus 1, HEK-293T
[2] = Selectivity index, ratio of CC50 for cytotoxicity against HEK293T cells assessed as reduction in cell viability by MTT assay to EC50 for antiviral activity against HIV1 VSV-G pseudotyped virus infected in human HEK293T cells assessed as inhibition of viral growth; assay type: toxicity, cell-based; conditions: read-out: Ratio CC50/EC50
[3] = Cytotoxicity against HEK293T cells assessed as reduction in cell viability by MTT assay; assay type: toxicity, cell-based, HEK-293T; conditions: human

For COc1nc(N)c2ncn([C@@H]3O[C@@](CO)(N=[N+]=[N-])[C@@H](O)[C@@H]3F)c2n1, the EC50 [1] was 4.46 nM, the selectivity ratio [2] was greater than 22400 and the CC50 [3] was greater than 100000 nM.
